Holding throughout (assay): Example B post-emergence herbicidal activity
Holding throughout (format): in vivo

The test system of test [1] is Echinochloa crus-galli (ECHCG). Particulars: 312 h, evaluated after 13 days, read-out: Post-emergence activity ECHCG (100=total damage to plant; 0=no damage to plant); for pest or weed control at 250 g/ha: rate 250 g/ha. The procedure:
(§1) Seeds of a variety of test species were sown in standard soil in pots. After cultivation for one day (pre-emergence) or after 8 days cultivation (post-emergence) under controlled conditions in a glasshouse (at 24/16° C., day/night; 14 hours light; 65% humidity), the plants were sprayed with an aqueous spray solution derived from the formulation of the technical active ingredient in acetone/water (50:50) solution containing 0.5% Tween 20 (polyoxyethelyene sorbitan monolaurate, CAS RN 9005-64-5).
(§2) The test plants were then grown in a glasshouse under controlled conditions in a glasshouse (at 24/16° C., day/night; 14 hours light; 65% humidity) and watered twice daily. After 13 days for pre and post-emergence, the test was evaluated (100=total damage to plant; 0=no damage to plant).
(§3) Alopecurus myosuroides (ALOMY), Avena fatua (AVEFA), Setaria faberi (SETFA), Echinochloa crus-galli (ECHCG), Solanum nigrum (SOLNI) and Amaranthus retoflexus (AMARE)

The subject of test [2] is Amaranthus retoflexus (AMARE). Conditions: Amaranthus retroflexus, 312 h, evaluated after 13 days, read-out: Post-emergence activity AMARE (100=total damage to plant; 0=no damage to plant); for pest or weed control at 250 g/ha: rate 250 g/ha. The method, then: as §1, §2, §3
The next test concerns Setaria faberi (SETFA). Particulars: 312 h, evaluated after 13 days, read-out: Post-emergence activity SETFA (100=total damage to plant; 0=no damage to plant); for pest or weed control at 250 g/ha: rate 250 g/ha. The method, then: as §1, §2, §3
The subject of test [3] is Alopecurus myosuroides (ALOMY). Conditions: 312 h, evaluated after 13 days, read-out: Post-emergence activity ALOMY (100=total damage to plant; 0=no damage to plant); for pest or weed control at 250 g/ha: rate 250 g/ha. The method, then: as §1, §2, §3
In the next test the test system is Avena fatua (AVEFA). Conditions: 312 h, evaluated after 13 days, read-out: Post-emergence activity AVEFA (100=total damage to plant; 0=no damage to plant); for pest or weed control at 250 g/ha: rate 250 g/ha. The procedure: as §1, §2, §3

Consider `C=Cc1ccc(-c2nc(C3C(=O)[C@@H]4CC[C@@H](C4)C3=O)c(CC)s2)cc1` (some centres unmarked) [Compound T113], for which the pest or weed control at 250 g/ha in test [1] worked out at 100%; in test [2], 0%; with Setaria faberi (SETFA), 90%; in test [3], 90%; in the test on Avena fatua (AVEFA) it was 100%.
In the case of `CCc1sc(-c2ccc(OC(C)C)c(Cl)c2)nc1C1C(=O)[C@@H]2CC[C@@H](C2)C1=O` (some centres unmarked) [Compound T114], the pest or weed control at 250 g/ha in test [1] was 60%; in test [2], 0%; in the test on Setaria faberi (SETFA), 90%; in test [3], 10%; in the test with Avena fatua (AVEFA) it was 0%.
For `CCc1sc(-c2ccc(Cl)cc2)[n+]([O-])c1C1C(=O)[C@@H]2CC[C@@H](C2)C1=O` (some centres unmarked) [Compound T89], the pest or weed control at 250 g/ha came to 30% in test [1]; 0% in test [2]; 80% in the test with Setaria faberi (SETFA); 0% in test [3]; 0% with Avena fatua (AVEFA).
For the compound `Cc1scnc1C1C(=O)[C@@H]2CC[C@@H](C2)C1=O` (some centres unmarked) [Compound T52], the pest or weed control at 250 g/ha (in test [1]; in test [2]; in the test with Setaria faberi (SETFA); in test [3]; in the test on Avena fatua (AVEFA)) was 0% in each case.
For `Cc1sc(-c2ccc(Br)cc2)nc1C1C(=O)[C@H]2C[C@@H](C1=O)C2(C)C` (some centres unmarked) [Compound T121], the pest or weed control at 250 g/ha came out at 100% in test [1]; 0% in test [2]; 90% with Setaria faberi (SETFA); 70% in test [3]; 80% in the test with Avena fatua (AVEFA).
For `CCc1sc(-c2ccc(C(=O)OC)cc2)nc1C1C(=O)[C@@H]2CC[C@@H](C2)C1=O` (some centres unmarked) [Compound T107], in that order: 60%, 0%, 0%, 0% and 0%.
Taken in the same sequence, the figures for `Cc1sc(-c2ccc(C=O)cc2)nc1C1=C(OC(=O)C(C)(C)C)[C@H]2CC[C@H](C2)C1=O` [Compound P23] were 20%, 0%, 30%, 0% and 0%.
Taken in the same sequence, the figures for `Cc1ncc(-c2ccc(Cl)cc2)cc1C1C(=O)[C@@H]2CC[C@@H](C2)C1=O` (some centres unmarked) [Compound T118] were 60%, 0%, 80%, 60% and 80%.
For the compound `CCOc1ccc(-c2nc(C3C(=O)[C@@H]4CC[C@@H](C4)C3=O)c(CC)s2)cc1F` (some centres unmarked) [Compound T112], the pest or weed control at 250 g/ha in test [1] amounted to 100%; in test [2], 0%; in the test with Setaria faberi (SETFA), 100%; in test [3] it was 70%; with Avena fatua (AVEFA) it was 80%.
With `Cc1sc(-c2ccc(Cl)cc2C(F)(F)F)nc1C1C(=O)[C@@H]2CC[C@@H](C2)C1=O` (some centres unmarked) [Compound T6], the pest or weed control at 250 g/ha in test [1] amounted to 40%; in test [2] it was 0%; with Setaria faberi (SETFA) it was 50%; in test [3], 0%; with Avena fatua (AVEFA) it was 0%.
For `Cc1nc(-c2ccc(Cl)cc2F)sc1C1C(=O)[C@@H]2CC[C@@H](C2)C1=O` (some centres unmarked) [Compound T47], the pest or weed control at 250 g/ha in test [1] amounted to 80%; in test [2], 0%; in the test with Setaria faberi (SETFA), 90%; in test [3], 30%; in the test on Avena fatua (AVEFA) it was 0%.
As for `Cc1sc(-c2ccc(C(=O)O)cc2)cc1C1C(=O)C2CCC(C2)C1=O` (centres unmarked) [Compound T24, 4-[4-(2,4-dioxobicyclo[3.2.1]oct-3-yl)-5-methylthiophen-2-yl]benzoic acid], the pest or weed control at 250 g/ha in test [1] worked out at 0%; in test [2], 0%; in the test with Setaria faberi (SETFA) it was 30%; in test [3], 0%; with Avena fatua (AVEFA), 0%.
In the case of `Cc1sc(-c2ccsc2)nc1C1C(=O)[C@@H]2CC[C@@H](C2)C1=O` (some centres unmarked) [Compound T60], the pest or weed control at 250 g/ha in test [1] worked out at 50%; in test [2] it was 0%; in the test on Setaria faberi (SETFA) it was 60%; in test [3], 0%; in the test on Avena fatua (AVEFA), 0%.
With `CCc1sc(-c2ccsc2)nc1C1C(=O)[C@@H]2CC[C@@H](C2)C1=O` (some centres unmarked) [Compound T97], the pest or weed control at 250 g/ha in test [1] is 70%; in test [2] it was 0%; in the test on Setaria faberi (SETFA), 70%; in test [3], 0%; in the test on Avena fatua (AVEFA), 0%.
For `Cc1sc(CC(C)C)nc1C1C(=O)[C@@H]2CC[C@@H](C2)C1=O` (some centres unmarked) [Compound T61], the pest or weed control at 250 g/ha amounted to 0% in test [1]; 0% in test [2]; 20% in the test with Setaria faberi (SETFA); 0% in test [3]; 0% in the test with Avena fatua (AVEFA).
Consider `Cc1oc(-c2ccc(Cl)cc2)nc1C1C(=O)[C@@H]2CC[C@@H](C2)C1=O` (some centres unmarked) [Compound T90], for which the pest or weed control at 250 g/ha in test [1] turned out to be 30%; in test [2], 0%; with Setaria faberi (SETFA) it was 40%; in test [3], 0%; with Avena fatua (AVEFA), 0%.
As to `O=C1C(c2csc(-c3ccc(Cl)cc3)n2)C(=O)[C@H]2CC[C@@H]1C2` (some centres unmarked) [Compound T43, 3-[2-(4-chloro-phenyl)thiazol-4-yl]bicyclo[3.2.1]octane-2,4-dione], the pest or weed control at 250 g/ha amounted to 20% in test [1]; 0% in test [2]; 60% in the test on Setaria faberi (SETFA); 20% in test [3]; 0% with Avena fatua (AVEFA).
Regarding `Cc1sc(-c2ccccc2Cl)nc1C1C(=O)[C@@H]2CC[C@@H](C2)C1=O` (some centres unmarked) [Compound T71], the pest or weed control at 250 g/ha in test [1] was determined as 20%; in test [2], 0%; in the test with Setaria faberi (SETFA), 50%; in test [3], 0%; in the test with Avena fatua (AVEFA), 0%.
As for `Cc1sc(-c2ccc(OC(C)C)c(Cl)c2)nc1C1C(=O)[C@@H]2CC[C@@H](C2)C1=O` (some centres unmarked) [Compound T79], the pest or weed control at 250 g/ha in test [1] is 0%; in test [2], 0%; in the test on Setaria faberi (SETFA), 10%; in test [3], 0%; with Avena fatua (AVEFA), 0%.
As for `Cc1nc(-c2ccc(Cl)c(Cl)c2)sc1C1C(=O)[C@@H]2CC[C@@H](C2)C1=O` (some centres unmarked) [Compound T48], the pest or weed control at 250 g/ha was found to be 80% in test [1]; 0% in test [2]; 80% with Setaria faberi (SETFA); 20% in test [3]; 0% in the test with Avena fatua (AVEFA).
Take `Cc1nc(-c2ccc(Cl)cc2)sc1C1C(=O)[C@@H]2CC[C@@H](C2)C1=O` (some centres unmarked) [Compound T31]: the pest or weed control at 250 g/ha in test [1] was found to be 60%; in test [2] it was 0%; in the test with Setaria faberi (SETFA) it was 80%; in test [3], 0%; in the test with Avena fatua (AVEFA), 0%.
On to `COC(=O)c1ccc(-c2cc(C3C(=O)[C@@H]4CC[C@@H](C4)C3=O)c(C)s2)cc1` (some centres unmarked) [Compound T25, 4-[4-(2,4-dioxobicyclo[3.2.1]oct-3-yl)-5-methylthiophen-2-yl]benzoic acid methyl ester], for which the pest or weed control at 1000 g/ha came out at 10% in test [1] (rate 1000 g/ha); 0% in test [2] (rate 1000 g/ha); 30% in the test with Setaria faberi (SETFA) (rate 1000 g/ha); 20% in test [3] (rate 1000 g/ha); 0% in the test with Avena fatua (AVEFA) (rate 1000 g/ha).
